According to patent US5891917A, “Certain acrylonitrile-sulfonamide derivatives” (Sugen, Inc., priority 1997, dated 1999):

Experiments:
[1] = target: T1, PDGFR-beta (Homo sapiens, UniProt P09619); assay: PDGF-R Cellular Assay (ELISA); format: cell-based; settings: U1242 MG cells, 100 ng/ml PDGF-BB
T1 construct: the human glioblastoma line U1242 that expresses PDGFR-beta; endogenous in cells; host or cells: U1242 MG human glioblastoma cells
Text: (§1) The following examples illustrate the ability of the exemplary compounds to inhibit receptor tyrosine kinases, such as HER2 and/or EGFR. The following target cells were used for cellular kinase assays: NIH3T3 clone C7 (Honegger et al., supra) engineered to over-express human EGF receptor; NIH3T3 cells engineered to over-express a chimeric receptor containing the EGFR extracellular domain and the HER2 intracellular kinase domain; the human mammary carcinoma line BT474 (ATCC HTB2) expressing HER2; and the human glioblastoma line U1242 that expresses PDGFR-beta. Growth assays were carried out using human mammary epithelial SKBR3 (ATCC HTB30) cells (SKBR3 cells over-express HER2), SKOV3 (ATCC HTB77) human ovarian cancer cell line (SKOV3 cells also over-express HER2), A431 cells (A431 cells over-express EGFR) MCF7 human breast carcinoma cells, MCF7 cells overexpressing the HER2 kinase (MCF7-HER2), NIH3T3 cells, and NIH3T3 cells overexpressing the HER2 kinase (3T3-HER2.
The PDGF cellular kinase assay was carried out as follows: cells are lysed in 0.2M Hepes, 0.15M NaCl, 10% V/V glycerol, 0.04% Triton X-100, 5 mM EDTA, 5 rnM Na+ vanadate and 2 mM Na+ pyrophosphate; cell lysates are then added to an ELISA plate coated with an anti-PDGF receptor antibody (Genzyme); ELISA plates are coated at 0.5 μg of antibody/well in 150 μl of PBS for 18 hours at 4° C. prior to the addition of the lysate; the lysate is incubated in the coated plates for 1 hour and then washed four times in TBST (35 mM Tris-HCl pH 7.0, 0.15M NaCl, 0.1% Triton X100); anti-phosphotyrosine antibody (100 μl in PBS) is added and the mixture is incubated for 30 minutes at room temperature; the wells were then washed four times in TBST, a secondary antibody conjugated to POD (TAGO) is added to each well, and the treated well are incubated for 30 minutes at room temperature; the wells are then washed four times in TBST, ABTS/H2 O2 solution is added to each well and the wells are incubated for two minutes; absorbance is then measured at 410 nm.
U1242 MG cells were plated in 96-well plates at a concentration of 5×10^4 cells/well in cultured media containing 0.5% FBS. The cells were incubated for 24 hours. The cells were then treated with a particular compound for 2 hours followed by the addition of 100 ng/ml PDGF-BB and incubation for 10 minutes.
Cells were lysed in 0.2M Hepes, 0.15M NaCl, 10% V/V glycerol, 0.04% Triton X-100, 5 mM EDTA, 5 mM Na+ vanadate and 2 mM Na+ pyrophosphate. Cell lysates were then added to an ELISA plate coated with an anti-PDGF receptor antibody (Genzyme). ELISA plates were coated at 0.5 μg of antibody/well in 150 μl of PBS for 18 hours at 4° C. prior to the addition of the lysate.
The lysate was incubated in the coated plates for 1 hour and then washed four times in TBST (35 mM Tris-HCl pH 7.0, 0.15M NaCl, 0.1 % Triton X-100). Anti-phosphotyrosine antibody (100 μl in PBS) was added and the mixture was incubated for 30 minutes at room temperature. The wells were then washed four times in TBST, a secondary antibody conjugated to POD (TAGO) was added to each well, and the treated well were incubated for 30 minutes at room temperature. The wells were then washed four times in TBST, ABTS/H2 O2 solution was added to each well and the wells were incubated for two minutes. Absorbance was then measured at 410 nm.

[2] = target: T2, EGFR (Homo sapiens, UniProt P00533); assay: EGFR Whole Cell Kinase Assay (ELISA); format: cell-based; settings: EGFR/C7 (NIH3T3) cells, 25 nM EGF
T2 construct: expressed in transfected cells; host or cells: NIH3T3 clone C7 (EGFR/C7, Honegger et al.)
Text: as §1
EGFR Whole Cell Kinase Assay
EGFR kinase activity (EGFR-3T3 assay) in whole cells was measured as described below:
A. Coat ELISA plates (Corning, 96 well, Cat. #25805-96) with 05-101 antibody at 0.5 μg per well in PBS, 150 μl final volume/well, and store overnight at 4° C. Coated plates are good for up to 10 days when stored at 4° C.
B. On day of use, remove coating buffer and replace with blocking buffer (5% Carnation Instant NonFat Dry Milk in PBS). Incubate the plate, shaking, at room temperature (about 23° C. to 25° C.) for 30 minutes. Just prior to use, remove blocking buffer and wash plate 4 times with TBST buffer.
A. EGFR/C7 cell line (Honegger, et al., supra) can be used for this assay.
B. Choose dishes having 80-90% confluence for the experiment. Trypsinize cells and stop reaction by adding 10% CS DMEM medium. Suspend cells in DMEM medium (10% CS DMEM medium) and centrifuge once at 1000 rpm, and once at room temperature for 5 minutes.
C. Resuspend cells in seeding medium (DMEM, 0.5% bovine serum), and count the cells using trypan blue. Viability above 90% is acceptable. Seed cells in DMEM medium (0.5% bovine serum) at a density of 10,000 cells per well, 100 μl per well, in a 96 well microtiter plate. Incubate seeded cells in 5% CO2 at 37° C. for about 40 hours.
A. Check seeded cells for contamination using an inverted microscope. Dilute drug stock (10 mg/ml in DMSO) 1:10 in DMEM medium, then transfer 5 μl to a test well for a final drug dilution of 1:200 and a final DMSO concentration of […]. Control wells receive DMSO alone. Incubate in 5% CO2 at 37° C. for one hour.
B. Prepare EGF ligand: dilute stock EGF in DMEM so that upon transfer of 10 μl dilute EGF (1:12 dilution), 25 nM final concentration is attained.
D. After two hours incubation with drug, add prepared EGF ligand to cells, 10 μl per well, to yield a final concentration of 25 nM. Control wells receive DMEM alone. Incubate, shaking, at room temperature, for 5 minutes.
E. Remove drug, EGF, and DMEM. Wash cells twice with PBS. Transfer HNTG* to cells, 100 μl per well. Place on ice for 5 minutes. Meanwhile, remove blocking buffer from other ELISA plate and wash with TBST as described above.
F. With a pipette tip securely fitted to a micropipettor, scrape cells from plate and homogenize cell material by repeatedly aspirating and dispensing the HNTG* lysis buffer. Transfer lysate to a coated, blocked, and washed ELISA plate. Incubate shaking at room temperature for one hour.
G. Remove lysate and wash 4 times with TBST. Transfer freshly diluted anti-Ptyr antibody to ELISA plate at 100 μl per well. Incubate shaking at room temperature for 30 minutes in the presence of the anti-Ptyr antiserum (1:3000 dilution in TBST).
H. Remove the anti-Ptyr antibody and wash 4 times with TBST. Transfer the freshly diluted TAGO 30 anti-rabbit IgG antibody (anti-rabbit IgG antibody: 1:3000 dilution in TBST) to the ELISA plate at 100 μl per well. Incubate shaking at room temperature for 30 minutes. […]

T2 sequence (P00533 25-1210): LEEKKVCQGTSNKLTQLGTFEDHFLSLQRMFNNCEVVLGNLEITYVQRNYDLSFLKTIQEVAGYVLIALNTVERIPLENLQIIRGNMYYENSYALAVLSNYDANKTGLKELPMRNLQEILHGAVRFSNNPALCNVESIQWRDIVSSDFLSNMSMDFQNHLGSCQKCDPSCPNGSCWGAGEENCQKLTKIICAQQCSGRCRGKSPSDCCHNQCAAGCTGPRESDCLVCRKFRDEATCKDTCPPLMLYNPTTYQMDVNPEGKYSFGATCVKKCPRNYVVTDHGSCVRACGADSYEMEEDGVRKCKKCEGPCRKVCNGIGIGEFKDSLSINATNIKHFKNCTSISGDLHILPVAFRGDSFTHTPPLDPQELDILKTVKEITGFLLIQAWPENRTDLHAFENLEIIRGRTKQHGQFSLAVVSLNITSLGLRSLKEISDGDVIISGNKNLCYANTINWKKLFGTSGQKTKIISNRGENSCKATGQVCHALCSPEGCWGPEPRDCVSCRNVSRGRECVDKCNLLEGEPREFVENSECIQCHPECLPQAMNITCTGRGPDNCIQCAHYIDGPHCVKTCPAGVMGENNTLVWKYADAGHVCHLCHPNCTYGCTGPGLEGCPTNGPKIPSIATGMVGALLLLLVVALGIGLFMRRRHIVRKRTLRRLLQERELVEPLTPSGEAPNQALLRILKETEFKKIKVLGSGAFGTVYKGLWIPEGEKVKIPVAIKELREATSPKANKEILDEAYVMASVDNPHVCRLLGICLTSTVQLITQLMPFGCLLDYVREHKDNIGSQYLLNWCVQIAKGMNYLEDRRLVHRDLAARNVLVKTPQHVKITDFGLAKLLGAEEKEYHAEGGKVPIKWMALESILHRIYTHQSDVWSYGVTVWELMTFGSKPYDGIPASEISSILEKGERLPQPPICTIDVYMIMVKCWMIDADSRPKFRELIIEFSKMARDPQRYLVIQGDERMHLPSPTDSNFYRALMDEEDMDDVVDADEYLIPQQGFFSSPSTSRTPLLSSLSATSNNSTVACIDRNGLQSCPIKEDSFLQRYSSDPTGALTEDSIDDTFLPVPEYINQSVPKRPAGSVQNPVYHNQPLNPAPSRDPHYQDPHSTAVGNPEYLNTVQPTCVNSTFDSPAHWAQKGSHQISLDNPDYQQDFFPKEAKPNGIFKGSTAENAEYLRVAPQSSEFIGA
T1 sequence (P09619 33-1106): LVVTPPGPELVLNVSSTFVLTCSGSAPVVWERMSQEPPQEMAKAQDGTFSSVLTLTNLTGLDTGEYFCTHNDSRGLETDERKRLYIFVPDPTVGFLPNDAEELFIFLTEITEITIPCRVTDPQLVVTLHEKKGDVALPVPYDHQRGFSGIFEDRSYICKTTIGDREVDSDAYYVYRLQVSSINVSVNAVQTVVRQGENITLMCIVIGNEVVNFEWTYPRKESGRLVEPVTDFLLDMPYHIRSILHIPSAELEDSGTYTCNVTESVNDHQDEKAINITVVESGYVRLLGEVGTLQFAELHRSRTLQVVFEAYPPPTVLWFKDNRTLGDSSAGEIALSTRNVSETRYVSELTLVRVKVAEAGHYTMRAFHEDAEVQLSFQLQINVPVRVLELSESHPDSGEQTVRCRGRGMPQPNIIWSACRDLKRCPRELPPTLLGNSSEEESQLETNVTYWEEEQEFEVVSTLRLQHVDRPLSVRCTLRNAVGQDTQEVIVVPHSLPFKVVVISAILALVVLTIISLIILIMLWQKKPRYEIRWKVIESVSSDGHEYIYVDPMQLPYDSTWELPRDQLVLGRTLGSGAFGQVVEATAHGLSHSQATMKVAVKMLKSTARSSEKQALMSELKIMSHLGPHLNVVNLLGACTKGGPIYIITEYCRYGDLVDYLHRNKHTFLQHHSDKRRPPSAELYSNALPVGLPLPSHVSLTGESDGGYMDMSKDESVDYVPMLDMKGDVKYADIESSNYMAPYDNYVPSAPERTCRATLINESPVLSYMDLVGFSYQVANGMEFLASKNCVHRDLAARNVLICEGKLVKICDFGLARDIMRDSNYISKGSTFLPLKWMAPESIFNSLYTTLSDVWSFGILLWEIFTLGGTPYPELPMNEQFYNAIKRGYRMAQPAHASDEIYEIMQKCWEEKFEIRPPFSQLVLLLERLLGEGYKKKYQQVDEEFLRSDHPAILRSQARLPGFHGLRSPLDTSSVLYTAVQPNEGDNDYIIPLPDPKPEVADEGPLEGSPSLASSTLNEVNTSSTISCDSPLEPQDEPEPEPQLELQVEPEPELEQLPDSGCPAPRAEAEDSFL

Compound	IC50 [1] [µM]	IC50 [2] [µM]
CC(C)c1cc(/C=C(\C#N)S(=O)(=O)c2ccccc2)cc(C(C)C)c1O [Compound 731]	> 50	73.2
CC(C)c1cc(/C=C(\C#N)S(=O)(=O)NCc2ccccc2)cc(C(C)C)c1O [Compound 732]	50	58
N#C/C(=C\c1ccc(O)cc1Cl)S(=O)(=O)NCc1ccccc1 [Compound 733]	> 50	> 100
N#C/C(=C\c1ccc(O)cc1Cl)S(=O)(=O)NCCCc1ccccc1 [Compound 734]	> 50	> 100
CC(C)(C)c1cc(/C=C(\C#N)S(=O)(=O)Cc2cccc(C(F)(F)F)c2)cc(C(C)(C)C)c1O [Compound 735]	> 100	
CC(C)c1cc(/C=C(\C#N)S(=O)(=O)Cc2cccc(C(F)(F)F)c2)cc(C(C)C)c1O [Compound 736]	> 100	100
CC(C)c1cc(/C=C(\C#N)S(=O)(=O)c2cccs2)cc(C(C)C)c1O [Compound 737]	> 100	77
CC(C)c1cc(/C=C(\C#N)S(=O)(=O)c2ccsc2)cc(C(C)C)c1O [Compound 738]	> 100	79.2
Cc1cc(/C=C(\C#N)S(=O)(=O)Cc2cccc(C(F)(F)F)c2)cc(C)c1O [Compound 739]	> 100	> 100
CC(C)(C)c1cc(/C=C(\C#N)S(=O)(=O)c2ccc(F)cc2)cc(C(C)(C)C)c1O [Compound 740]	> 100	> 100
CC(C)c1cc(/C=C(\C#N)S(=O)(=O)c2ccc(F)cc2)cc(C(C)C)c1O [Compound 741, (E)-3-(3,5-Diisopropyl-4-hydroxyphenyl)-2-(4-fluorophenylsulfonyl)acrylonitrile]	> 100	52.7
CC(C)(C)c1cc(/C=C(\C#N)S(=O)(=O)c2cccs2)cc(C(C)(C)C)c1O [Compound 742]	> 100	> 100
N#C/C(=C\c1ccc(O)c(O)c1)S(=O)(=O)c1cccs1 [Compound 743, (E)-3-(3,4-Dihydroxyphenyl)-2-[(thien-2-yl)sulfonyl]acrylonitrile]	> 100	> 100
Cc1cc(/C=C(\C#N)S(=O)(=O)c2ccc(F)cc2)cc(C)c1O [Compound 744]	> 100	> 100
CC(C)c1cc(/C=C(\C#N)S(=O)(=O)/C(C#N)=C/c2cc(C(C)C)c(O)c(C(C)C)c2)cc(C(C)C)c1O [Compound 745]		< 100
CC(C)(C)c1cc(/C=C(\C#N)S(=O)(=O)c2ccsc2)cc(C(C)(C)C)c1O [Compound 746]	> 100	> 100
CC(C)c1cc(/C=C(\C#N)S(=O)(=O)c2ccccn2)cc(C(C)C)c1O [Compound 747]	> 50	
Cc1cc(/C=C(\C#N)S(=O)(=O)c2ccccc2)cc(C)c1O [Compound 748]	> 100	
